Laboratory results as given in patent US20210038577A1, “THIOREDOXIN REDUCTASE INHIBITORS FOR USE IN THE TREATMENT OF CANCER” (Cinda Pharma AB, priority 2018, published 2021).
“And” between values parts separate entries of the source, which are not always exact repeats. Equal values may be shown once.

Assays:
[1] = tested on: MDA-MB-231 cells; assay: CellQuanti-Blue cell viability assay, MDA-MB-231; type: cell-based, human
Description: Cell viability was then assessed using the CellQuanti assay. Relative cell viability was determined using DMSO only and blank controls.
Cells were plated at 2000 cells/well into 96-well plates in media containing 10% FBS. […] CellQuanti-Blue cell viability reagent was added to each well and the plates were subsequently incubated at 37° C. for 3 hours. Viability was determined fluorometrically using an Enspire plate reader […] excitation: 530 nm, emission: 590 nm. Viability was normalized to DMSO controls and blank wells with media.

[2] = tested on: TM00098 patient-derived xenografts (TNBC); assay: TM00098 patient derived TNBC xenografts in humanized Hu-CD34-NSG mice, tumor growth; type: in vivo
From the text: FIG. 11: Primary tumor growth of TM00098 patient derived triple-negative breast cancer xenografts in humanized immunocompetent NSG mice (Hu-CD34-NSG) treated with OT-1096 or vehicle control. A) Humanized NSG mice (Hu-CD34-NSG) engrafted with CD34+ cells from donor 5243 and subsequently implanted with TNBC PDX TM00098. B) Humanized NSG mice (Hu-CD34-NSG) engrafted with CD34+ cells from donor 5252 and subsequently implanted with TNBC PDX TM00098. Female NSG mice were implanted with human CD34+ hematopoietic stem cells from multiple donors and the level of human CD45+ cells were measured in the peripheral blood 12 weeks post engraftment. Mice with >25% human CD45+ cells in the peripheral blood were determined to have a humanized immune system (Hu-CD34-NSG™) mice and were enrolled into the study. […] Tumor volume was measured using a digital caliper two times a week for the duration of the study. […] Statistical significance (p<0.05) was determined using a Two-way repeated measures ANOVA with Sidak's multiple comparison test.
Athymic nude mice were inoculated orthotopically with 5×10^6 MDA-MB-231 breast cancer cells into the mammary fat pad, and randomized for treatment when tumors reached an average volume of 80-120 mm^3 (N=12 in each group). […] Xenograft tumor volume was assessed using caliper measurements for 25 days. […] Xenograft tumor volume was assessed using caliper measurements for 25 days. […]

Row | Compound | sensitivity of MDA-MB-231 cells over time of exposure ([1]; 24, 48, 72 hours (FIG. 2A)) | potency relative to Iniparib in MDA-MB-231 cells ([1]; CellQuanti-Blue, 24, 48 or 72 hours) | % TGI ([2]; 10 mg/kg three times a week intravenously, human immune cells from two separate donors, caliper) | mean tumor volume compared to vehicle ([2]; day 24 and 28 for CD34+ donor 5243, day 31 for donor 5252, p<0.05)
1 | COc1ccc([N+](=O)[O-])c(S(=O)(=O)c2ccc(Cl)cc2)n1 [OT-1000, 2-((4-Chlorophenyl)sulfonyl)-6-methoxy-3-nitropyridine] | increasingly sensitive | 100 fold | – | –
2 | CCCCCCCCS(=O)(=O)c1nc(OC)ccc1[N+](=O)[O-] [OT-1096, 6-methoxy-3-nitro-2-(octylsulfonyl)pyridine] | – | – | 45% and 55% | statistically significant
